Measurements reported in ChEMBL document CHEMBL1201862, “PubChem BioAssay data set” (2004).
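Method: 48-hour compound exposure of cells in 96-well plates, five concentrations, linear interpolation of endpoints. GI50 is the concentration that inhibits growth by half.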 Calls of active or inactive are those of the source. No stated cut-off is given here; in the data, active = GI50 up to about 1.1 µM and inactive = higher.

What was measured:
Test in all cases: growth of human tumour cells (NCI), 48 h
[1] = tested on: 786-0
[2] = tested on: A498
[3] = tested on: A549
[4] = tested on: ACHN
[5] = tested on: BT-549
[6] = tested on: CAKI-1
[7] = tested on: CCRF-CEM
[8] = tested on: COLO 205
[9] = tested on: DU-145
[10] = tested on: EKVX
[11] = tested on: HCT-116
[12] = tested on: HCT-15
[13] = tested on: HOP-62
[14] = tested on: HOP-92
[15] = tested on: HT-29
[16] = tested on: Hs-578T
[17] = tested on: IGROV-1
[18] = tested on: K562
[19] = tested on: KM12
[20] = tested on: LOX IMVI
[21] = tested on: M14
[22] = tested on: MCF7
[23] = tested on: MDA-MB-231
[24] = tested on: MDA-MB-435
[25] = tested on: MDA-N
[26] = tested on: MOLT-4
[27] = tested on: Malme-3M
[28] = tested on: NCI-H226
[29] = tested on: NCI-H23
[30] = tested on: NCI-H460
[31] = tested on: NCI-H522
[32] = tested on: NCI/ADR-RES
[33] = tested on: OVCAR-3
[34] = tested on: OVCAR-4
[35] = tested on: OVCAR-5
[36] = tested on: OVCAR-8
[37] = tested on: PC-3
[38] = tested on: RPMI-8226
[39] = tested on: RXF 393
[40] = tested on: SF-268
[41] = tested on: SF-295
[42] = tested on: SF-539
[43] = tested on: SK-MEL-28
[44] = tested on: SK-MEL-2
[45] = tested on: SK-MEL-5
[46] = tested on: SK-OV-3
[47] = tested on: SN12C
[48] = tested on: SNB-19
[49] = tested on: SNB-75
[50] = tested on: SR
[51] = tested on: SW-620
[52] = tested on: T47D
[53] = tested on: TK-10
[54] = tested on: U-251
[55] = tested on: UACC-62
[56] = tested on: UO-31
[57] = tested on: HCC 2998
[58] = tested on: HL-60
[59] = tested on: UACC-257

Which results are given for `COc1ccc2nc(-c3ccc(O)cc3)cn2c1`?
GI50 [1]: 58.7 µM (inactive); GI50 [2]: 71.4 µM (inactive); GI50 [3]: 64 µM (inactive); GI50 [4]: 23.3 µM (inactive); GI50 [5]: > 100 µM (inactive); GI50 [6]: 55.8 µM (inactive); GI50 [7]: 72.1 µM (inactive); GI50 [8]: 43.5 µM (inactive); GI50 [9]: 86.9 µM (inactive); GI50 [10]: 98.6 µM (inactive); GI50 [11]: 48.5 µM (inactive); GI50 [12]: 48.8 µM; GI50 [13]: 50.1 µM (inactive); GI50 [14]: 95.7 µM (inactive); GI50 [15]: 46.6 µM (inactive); GI50 [16]: 73.1 µM (inactive); GI50 [17]: 42.4 µM (inactive); GI50 [18]: 37.1 µM (inactive); GI50 [19]: 50.2 µM (inactive); GI50 [20]: 59 µM (inactive); GI50 [21]: 47.4 µM (inactive); GI50 [22]: 36 µM (inactive); GI50 [23]: > 100 µM (inactive); GI50 [24]: 18.5 µM (inactive); GI50 [25]: 23.4 µM (inactive); GI50 [26]: 49.1 µM (inactive); GI50 [27]: > 100 µM (inactive); GI50 [28]: > 100 µM (inactive); GI50 [29]: 71.9 µM (inactive); GI50 [30]: 27.4 µM (inactive); GI50 [31]: 32 µM (inactive); GI50 [32]: 65.8 µM (inactive); GI50 [33]: 82 µM (inactive); GI50 [34]: 73.8 µM (inactive); GI50 [35]: > 100 µM (inactive); GI50 [36]: 51.3 µM (inactive); GI50 [37]: 43.9 µM (inactive); GI50 [38]: 32.2 µM (inactive); GI50 [39]: > 100 µM (inactive); GI50 [40]: 56.8 µM (inactive); GI50 [41]: > 100 µM (inactive); GI50 [42]: 54.1 µM (inactive); GI50 [43]: 85.5 µM (inactive); GI50 [44]: > 100 µM (inactive); GI50 [45]: 16.6 µM (inactive); GI50 [46]: > 100 µM (inactive); GI50 [47]: 94.8 µM (inactive); GI50 [48]: > 100 µM (inactive); GI50 [49]: 95.5 µM (inactive); GI50 [50]: 10 µM (inactive); GI50 [51]: 11.7 µM (inactive); GI50 [52]: 89.9 µM (inactive); GI50 [53]: 71 µM (inactive); GI50 [54]: 44.7 µM (inactive); GI50 [55]: 24.7 µM (inactive); GI50 [56]: 35 µM (inactive)

What does the source list for `COC(=O)c1c(O)ccc2c1c1c(n2Cc2ccccn2)C(=O)c2ccccc2C1=O`?
GI50 [1]: 30.9 µM (inactive); GI50 [2]: > 100 µM (inactive); GI50 [3]: 29.8 µM (inactive); GI50 [4]: 18.5 µM (inactive); GI50 [5]: > 100 µM (inactive); GI50 [6]: 80.5 µM (inactive); GI50 [7]: 80 µM (inactive); GI50 [8]: 14.5 µM (inactive); GI50 [9]: 42.4 µM (inactive); GI50 [10]: 36.7 µM (inactive); GI50 [57]: 13.2 µM (inactive); GI50 [11]: 79.8 µM (inactive); GI50 [12]: 46 µM; GI50 [58]: 62.2 µM (inactive); GI50 [13]: 26.7 µM (inactive); GI50 [14]: 26.5 µM (inactive); GI50 [15]: 4.22 µM (inactive); GI50 [16]: 46.1 µM (inactive); GI50 [17]: 26.4 µM (inactive); GI50 [18]: > 100 µM (inactive); GI50 [19]: 46.2 µM (inactive); GI50 [21]: > 100 µM (inactive); GI50 [22]: 54.1 µM (inactive); GI50 [23]: > 100 µM (inactive); GI50 [24]: 86.7 µM (inactive); GI50 [25]: 97.5 µM (inactive); GI50 [26]: 94.8 µM (inactive); GI50 [27]: 31.2 µM (inactive); GI50 [28]: 70.1 µM (inactive); GI50 [29]: 57.1 µM (inactive); GI50 [30]: 40.3 µM (inactive); GI50 [31]: 15.8 µM (inactive); GI50 [32]: 41.3 µM (inactive); GI50 [33]: 18.1 µM (inactive); GI50 [35]: 56.8 µM (inactive); GI50 [36]: 50.4 µM (inactive); GI50 [37]: 58.7 µM (inactive); GI50 [38]: 25.3 µM (inactive); GI50 [39]: 52.5 µM (inactive); GI50 [40]: 35.9 µM (inactive); GI50 [41]: 20.2 µM (inactive); GI50 [42]: 17.1 µM (inactive); GI50 [43]: 19.2 µM (inactive); GI50 [44]: 42.7 µM (inactive); GI50 [45]: 50.5 µM (inactive); GI50 [46]: 21.7 µM (inactive); GI50 [47]: > 100 µM (inactive); GI50 [48]: 86.5 µM (inactive); GI50 [50]: 22 µM (inactive); GI50 [52]: 32 µM (inactive); GI50 [53]: 99.8 µM (inactive); GI50 [54]: 35.7 µM (inactive); GI50 [59]: > 100 µM (inactive); GI50 [55]: > 100 µM (inactive); GI50 [56]: 87.9 µM (inactive)

`CC(Br)C(=O)NC(CO)C(=O)O` (centres undefined) was tested. Which GI50 [1] did it give?
The GI50 was > 100 µM (inactive).

And the GI50 [2]?
The GI50 was > 100 µM (inactive).

And the GI50 [3]?
The GI50 was > 100 µM (inactive).

What about the GI50 [4] of the same compound?
The GI50 was > 100 µM (inactive).

And the GI50 [5]?
Its GI50 is > 100 µM (inactive).

And the GI50 [6]?
Its GI50 is > 100 µM (inactive).

And the GI50 [7]?
Its GI50 is > 100 µM (inactive).

And the GI50 [8]?
The GI50 was > 100 µM (inactive).

What about the GI50 [9] of the same compound?
Its GI50 is > 100 µM (inactive).

And the GI50 [10]?
The GI50 was > 100 µM (inactive).

What about the GI50 [11] of the same compound?
The GI50 was > 100 µM (inactive).

And the GI50 [12]?
Its GI50 is > 100 µM.

What about the GI50 [58] of the same compound?
Its GI50 is > 100 µM (inactive).

What about the GI50 [13] of the same compound?
The GI50 was > 100 µM (inactive).

What about the GI50 [14] of the same compound?
The GI50 was > 100 µM (inactive).

What about the GI50 [15] of the same compound?
The GI50 was > 100 µM (inactive).

What about the GI50 [16] of the same compound?
The GI50 was > 100 µM (inactive).

What about the GI50 [17] of the same compound?
The GI50 was > 100 µM (inactive).

What about the GI50 [18] of the same compound?
Its GI50 is > 100 µM (inactive).

And the GI50 [19]?
Its GI50 is > 100 µM (inactive).

And the GI50 [20]?
The GI50 was > 100 µM (inactive).

What about the GI50 [21] of the same compound?
Its GI50 is > 100 µM (inactive).

And the GI50 [22]?
The GI50 was > 100 µM (inactive).

What about the GI50 [23] of the same compound?
The GI50 was > 100 µM (inactive).

What about the GI50 [24] of the same compound?
The GI50 was > 100 µM (inactive).

What about the GI50 [25] of the same compound?
The GI50 was > 100 µM (inactive).

And the GI50 [26]?
Its GI50 is > 100 µM (inactive).

What about the GI50 [27] of the same compound?
The GI50 was > 100 µM (inactive).

What about the GI50 [28] of the same compound?
The GI50 was > 100 µM (inactive).

And the GI50 [29]?
Its GI50 is > 100 µM (inactive).

And the GI50 [30]?
The GI50 was > 100 µM (inactive).

What about the GI50 [31] of the same compound?
The GI50 was > 100 µM (inactive).

And the GI50 [32]?
Its GI50 is > 100 µM (inactive).

And the GI50 [33]?
Its GI50 is > 100 µM (inactive).

And the GI50 [34]?
The GI50 was > 100 µM (inactive).

What about the GI50 [35] of the same compound?
Its GI50 is > 100 µM (inactive).

And the GI50 [36]?
Its GI50 is > 100 µM (inactive).

And the GI50 [37]?
Its GI50 is > 100 µM (inactive).

And the GI50 [38]?
Its GI50 is > 100 µM (inactive).

What about the GI50 [39] of the same compound?
The GI50 was > 100 µM (inactive).

And the GI50 [40]?
Its GI50 is > 100 µM (inactive).

And the GI50 [41]?
Its GI50 is > 100 µM (inactive).

And the GI50 [42]?
Its GI50 is > 100 µM (inactive).

What about the GI50 [43] of the same compound?
The GI50 was > 100 µM (inactive).

And the GI50 [44]?
Its GI50 is > 100 µM (inactive).

What about the GI50 [45] of the same compound?
The GI50 was > 100 µM (inactive).

And the GI50 [46]?
The GI50 was > 100 µM (inactive).

What about the GI50 [47] of the same compound?
Its GI50 is > 100 µM (inactive).

And the GI50 [48]?
The GI50 was > 100 µM (inactive).

What about the GI50 [49] of the same compound?
Its GI50 is > 100 µM (inactive).

And the GI50 [50]?
Its GI50 is > 100 µM (inactive).

And the GI50 [51]?
Its GI50 is > 100 µM (inactive).

What about the GI50 [52] of the same compound?
Its GI50 is > 100 µM (inactive).

And the GI50 [53]?
The GI50 was > 100 µM (inactive).

And the GI50 [54]?
Its GI50 is > 100 µM (inactive).

What about the GI50 [59] of the same compound?
The GI50 was > 100 µM (inactive).

And the GI50 [55]?
The GI50 was > 100 µM (inactive).

And the GI50 [56]?
Its GI50 is > 100 µM (inactive).
